Test results published in patent publication US6953786B2, “Compositions comprising plant-derived polyphenolic compounds and inhibitors of reactive oxygen species and methods of using thereof” (The Regents of the University of California, priority 2002, dated 2005).
Residues, ends and D or L forms follow the SMILES beside them. *: point of attachment. Cbz = O=C(OCc1ccccc1)*; CH2F = FC*

How the values were obtained:
[1] = tested on: Mia PACA-2 cells; test: Mitochondrial membrane potential, DiOC6(3) retention; format: cell-based, human; conditions: Mia PACA-2, 72 hours, in the presence of serum (FIG. 11)
Method: In order to determine the effects polyphenolic compounds have on mitochondrial membrane potential, the retention of the dye 3,3′-dihexyloxacarbocyanine (DiOC6(3)) was measured as described by Pastorino J G, et al. (1998) J Biol Chem 273:7770-7775, which is herein incorporated by reference. BSp73AS cells were cultured for 6 hours in the absence (control) or presence of 0, 12, 24, 50, and 100 μM quercetin and trans-resveratrol. The cells were loaded with 1 μM DiOC6(3) during the last 30 minutes of treatment with a polyphenolic compound (or vehicle). The cells were then collected and pelleted by centrifugation. The supernatant was removed and the pellet was washed twice with PBS by alternate centrifugation and resuspension. The pellet was then lysed by addition of 1 ml of H2O and homogenized. The concentration of DiOC6(3) was read on a Perkin-Elmer LS-5 fluorescence spectrometer at 488 nm excitation and 500 nm emission. An aliquot of the cells was used for determining the DiOC6(3) fluorescence that was retained by the cells.
Mia PACA-2 cells were cultured for 72 hours in the presence of serum and trans-resveratrol or genistein in the presence or absence of DPI or Tiron. Mitochondrial membrane potential was measured as described above.

[2] = tested on: caspase-3; test: Caspase-3 (DEVDase) activity, fluorogenic assay with DEVD-AMC; format: cell-based, human; conditions: Mia PACA-2, 24 hours; Z-VAD FMK 50 μM (FIG. 12B)
Method: To determine whether a polyphenolic compound activates caspase-3 activity in a time-dependent manner, the following assay was conducted. BSp73AS cells were cultured for 0, 1, 3, and 6 hours and Mia PACA-2 cells were cultured in the absence of serum or growth factors for 0, 1, 4, 6, and 24 hours in the presence of 100 μM or quercetin, trans-resveratrol, rutin, or control. Caspase-3 activity was measured in cell lysates with a fluorogenic assay using DEVD-AMC as a substrate. The results were normalized to the DEVDase activity in untreated cells.
A fluorimetric assay for caspase-3 activity was conducted. […] Cytosolic protein extracts (supernatants) were collected, protein concentrations were determined and the extracts were aliquoted and stored at −80° C. […] The reaction was started by addition of caspase-3 substrate, the readings were taken at 0, 60, 90, and 120 minutes. Fluorescence was calibrated using a standard curve for AMC. The data were expressed as mol AMC/mg protein/min.
Mia PACA-2 cells were cultured in the absence of serum or growth factors for 24 hours in the presence or absence of quercetin (100 μM), trans-resveratrol (100 μM), Z-VAD FMK (50 μM), cyclosporin A (5 μM) and/or aristolochic acid (50 μM). […] The reaction was started by addition of caspase-3 substrate, the readings were taken at 0, 60, 90, and 120 minutes. Fluorescence was calibrated using a standard curve for AMC. […] The data were expressed as mol AMC/mg protein/min. […]

[3] = tested on: PARP; test: PARP proteolysis (Western blot); format: cell-based, rat; conditions: BSp73AS, 6 hours, 50 μM inhibitor
Method: (§1) BSp73AS cells were cultured for 6 hours and Mia PACA-2 cells were cultured for 24 hours in the presence or absence of 100 μM of each rutin, quercetin or trans-resveratrol and with or without 50 μM of each […]. The cells were washed twice with PBS and lysed by incubating for 20 minutes at 4° C. in lysis buffer comprising 0.15 M NaCl, 50 mM Tris (pH 7.2), 1% deoxycholic acid (wt/vol), 1% Triton X-100 (wt/vol), 0.1% […] (wt/vol) and 1 mM PMSF, as well as 5 μg/ml each of protease inhibitors, pepstatin, leupeptin, chymostatin, antipain, and aprotinin. Then the cell lysates were centrifuged for 20 minutes at 15,000 g at 4° C. The supernatants were separated by 4-20% SDS-PAGE for 2 hours at 120 V using precast Tris-glycine gels and a Mini-Cell gel apparatus (Novex, San Diego, Calif.). Separated proteins were electrophoretically transferred to a nitrocellulose membrane for 2 hours at 30 V using a Novex Blot Module (Novex, San Diego, Calif.). Nonspecific binding was blocked by 1 hour incubation of nitrocellulose membranes in 5% (wt/vol) nonfat dry milk in Tris-buffered saline (TBS; pH 7.5). Blots were then incubated overnight at 4° C. with rabbit polyclonal antibody against poly (ADP-ribose) polymerase (PARP) (Santa Cruz Biotechnology, Santa Cruz, Calif.) (1;3,000) in an antibody buffer comprising (1% (wt/vol) non-fat dry milk in TTBS (0.05% vol/vol) Tween-20 in TBS), washed 3 times with TTBS and finally incubated for 1 hour with a peroxidase-labeled secondary antibody in the antibody buffer. Blots were developed for visualization using ECL detection kit. To test for equal protein loading, the blots were stripped and re-probed with an antibody against tubulin. When processing of a protein was measured, a decrease in unprocessed full-length form was measured concomitantly with the increase in the cleaved, active form. The experiment was repeated 3 times with similar results.

[4] = tested on: Mia PACA-2 cells; test: Oligonucleosomal DNA fragmentation by cell death ELISA; format: cell-based, human; conditions: Mia PACA-2, 72 hours, with serum
Method: Mia PACA-2 cells were cultured for 72 hours in the presence of serum with or without 15 μM DPI, 10 mM Tiron, 100 μM genistein, 100 μM or 50 μM trans-resveratrol, or a combination thereof. Oligonucleosomal DNA fragmentation was measured in cell lysates by cell death ELISA.
Annexin staining was conducted as described above. Cells were collected, washed with PBS, and centrifuged for 10 min at 200×g. DNA fragmentation was determined using Cell Death Detection ELISA Plus kit (Roche Molecular Biochemicals).
To determine the role of caspases in the effects of combinations of agents on apoptosis, the effects of caspase-3 activity (DEVDase activity) as well as the effect of the broad spectrum caspase inhibitor, Z-VAD, on apoptosis was measured. Specifically, Mia PACA-2 cells were cultured for 72 hours in the presence of serum with or without 100 μM Z-VAD, 15 μM DPI, 100 μM trans-resveratrol, 100 μM genistein, a combination of trans-resveratrol and DPI, and a combination of genistein and DPI. DEVDase activity was measured in whole cell lysates with a fluorimetric assay. DNA fragmentation was measured in cell lysates by cell death ELISA.
In particular, Mia PACA-2 cells were cultured for 72 hours in the presence of serum with or without 50 μM trans-resveratrol (RS), 15 μM DPI, a combination of DPI and trans-resveratrol (RS+DPI), 10 μM MG-132 alone and in combination with RS, DPI, and RS+DPI. Internucleosomal DNA fragmentation was measured in cell lysates by cell death ELISA.

[5] = tested on: cytochrome c; test: Mitochondrial cytochrome c release (Western blot); format: cell-based, human; conditions: Mia PACA-2, 24 hours, Z-VAD FMK 50 μM
Method: In order to determine the effects polyphenolic compounds have on mitochondrial cytochrome c release and apoptosis, the following assay was conducted. BSp73AS cells were cultured for 6 hours and Mia PACA-2 cells were cultured in the absence of serum or growth factors for 24 hours in the absence or presence of 100 μM of each rutin, trans-resveratrol, genistein, or quercetin. Cells were washed twice with ice-cold PBS, pH 7.2 and resuspended in extraction buffer, about 500 μl, comprising 20 mM HEPES-KOH (pH 7.0), 10 mM KCl, 1 mM NaEGTA, 2 mM MgCl2, 1 mM EDTA, 1 mM DTT, 250 mM sucrose, 1 mM PMSF and protease inhibitors cocktail as provided above. The lysate was incubated for 30 minutes on ice and then homogenized using a glass dounce (80 strokes). Nuclei were removed by centrifugation at 1,000 g for 10 minutes at 4° C. Supernatant was additionally centrifuged for 1 hour at 100,000 g and the resulting supernatant (cytosolic fraction) and pellet (mitochondrial fraction) were collected separately, subjected to SDS-PAGE, and Western blotting using an antibody against cytochrome c. The experiment was repeated twice with similar results.
In order to determine the role of the cancer cell's PTP in the effects of the polyphenolic compounds on mitochondrial function, caspase-3 activation and apoptosis, we performed the following experiments. Mia PACA-2 cells were cultured in the absence of serum or growth factors for 24 hours in the presence or absence of quercetin (100 μM), trans-resveratrol (100 μM), Z-VAD FMK (50 μM), cyclosporin A (5 μM) and/or aristolochic acid (50 μM). Cells were collected, washed with ice-cold PBS and resuspended in lysis buffer comprising 0.5% Nonidet P-40 or manufactured by the name IGEPAL CA-630, 0.5 mM EDTA, 150 mM NaCl and 50 mM Tris at pH 7.5. Cell lysates were placed for 30 minutes on a rotator at 4° C. and then centrifuged for 15 minutes at 15,000 g. Cytosolic protein extracts (supernatants) were collected, protein concentrations were determined and the extracts were aliquoted and stored at −80° C. Cytosolic extracts were subjected to SDS-PAGE and Western blot was performed with an antibody against cytochrome c. Blots were then stripped and re-probed with an antibody against tubulin to confirm equal protein loading. The experiment was repeated twice with similar results.
In order to determine the effect of a combination of trans-resveratrol and quercetin on cytochrome c release and caspase-3 activity, the following was conducted. Mia PACA-2 cells were cultured in the absence of serum or growth factors for 24 hours in the presence or absence of trans-resveratrol (25 μM), quercetin (25 μM), or the combination of trans-resveratrol (25 μM) and quercetin (25 μM). Cytosolic extracts were prepared and subject to SDS-PAGE followed by protein transfer. Immunoblot was performed with an antibody against tubulin to confirm equal protein loading.

[6] = tested on: PARP; test: PARP proteolysis (Western blot); format: cell-based, human; conditions: Mia PACA-2, 24 hours, 50 μM inhibitor
Method: as §1

[7] = tested on: Mia PACA-2 cells; test: Intracellular ROS (H2O2) by flow cytometry of DCF-labeled cells; format: cell-based, human; conditions: Mia PACA-2, 72 hours; DPI 15 μM
Method: To determine the effect of serum in cancer cells, the following assay was conducted. Mia PACA-2 pancreatic cancer cells were cultured for 72 hours in the absence and presence of serum (15% FBS) or 100 ng/ml insulin growth factor-1 (IGF-1). Dichloroflyorescein diocetate (DCF-DA) was used to label the cells. Intracellular H2O2 was measured by flow cytometry of DCF-labeled cells. Intracellular ROS was measured using oxidation-sensitive cell-permeable fluorescent probe, dichlorofluorescein diacetate (DCF-DA) to measure H2O2. See Royall J A, and Ischiropoulos H. (1993) Arch. Biochem. Biophys. 302:348-355. To measure ROS, cells were collected after incubation, washed with PBS, and incubated for 15 minutes with […] DCF-DA. Samples were analyzed by flow cytometry. The amount of DCF-DA fluorescence correlated with the amount of ROS in the cells To determine the effects of serum, IGF-1, polyphenols and inhibitors of ROS on ROS production in cancer cells, the following assay was conducted. Mia PACA-2 cells were cultured for 72 hours in the presence of serum or IGF-1 with or without antioxidants, intracellular superoxide scavenger tiron (10 mM) or NADPH oxidase inhibitor, diphenylene iodonium (DPI, 15 μM) and trans-resveratrol (100 μM), genistein (100 μM), or a combination of polyphenolic compounds and antioxidants. Intracellular H2O2 was measured by flow cytometry of DCF-labeled cells. Mia PACA-2 cells and BSp73AS cells were cultured in Dulbecco's Modified Eagle's Medium supplemented with 10% heat inactivated FBS, penicillin G (100 U/ml) and streptomycin ([…]) in a humidified atmosphere comprising 5% (v/v) CO2. When the cells were 90% confluent they were detached, washed with alternating centrifugation and resuspension, plated and incubated in the same media with or without FBS or IGF-1 and with or without a given polyphenolic compound and with or without a given ROS inhibitor.

[8] = tested on: NF-κB; test: NF-κB DNA binding activity (EMSA / gel shift); format: cell-based, human; conditions: Mia PACA-2, 72 hours, with serum; DPI 15 μM, trans-resveratrol 100 μM, genistein 100 μM, LY294002 50 μM
Method: In order to determine the role of activated NF-κB in the regulation of apoptosis caused by the polyphenolic compound, the following assay was conducted. BSp73AS cells were cultured for 6 hours and Mia PACA-2 cells were cultured in the absence of serum or growth factors for 24 hours in the absence (controls) or presence of rutin, quercetin, trans-resveratrol, or genistein, each at 100 μM and 20 μM proteosome inhibitor MG-132. Nuclear proteins were isolated and analyzed for NF-κB DNA binding activity with electrophoretic mobility shift assay (EMSA).
Specifically, aliquots of nuclear extracts with equal amount of protein, about 2 to about 10 μg, were mixed in 20 μl reactions with a buffer comprising 10 mM HEPES (pH 7.6), 50 mM KCl, 0.1 mM EDTA, 1 mM DTT, 10% (vol/vol) glycerol and 3 μg poly[d (I-C)]. After aliquots were equilibrated on ice for 5 minutes, binding reactions were stared by addition of 20-60,000 counts/min (20 fM) of ^32P-labeled DNA probes and allowed to proceed for 25-30 minutes at room temperature or up to 1 hour on ice. The oligonucleotide probe
containing the κB binding motif (underlined) was annealed to the complementary oligonucleotide with a 5′-G overhang and end-labeled using Klenow DNA polymerase I. The samples were electrophoresed at room temperature in 0.5×TBE buffer (1×TBE 89 mM Tris base, 89 mM boric acid and 2 mM EDTA) on nondenaturing 4.5% polyacrylamide gel at 200 V. Gels were dried and directly analyzed in the PhosphorImager (Molecular Dynamics, Sunnyvale, Calif.). The experiment was repeated twice.
To study the effects of combinations of DPI and polyphenolic compounds on serum-induced activation of NF-κB and protection from apoptosis, the following assay was conducted. Mia PACA-2 cells were cultured for 72 hours in the presence of serum with or without 100 μM trans-resveratrol, 15 μM DPI, a combination of trans-resveratrol, 100 μM genistein, or a combination of genistein and DPI. NF-κB binding activity was measured in nuclear extracts by gel shift assay as described above.
To determine the effects of LY29400 and DPI on NF-κB activation, Mia PACA-2 cells were cultured for 72 hours in the presence of serum and 15 μM DPI with or without 50 μM LY294002. NF-κB DNA binding activity was measured in nuclear extracts by gel shift assay as described above.

Compound | mitochondrial membrane potential [1] | caspase activity in cells treated with polyphenolic compounds, effect of Z-VAD [2] | PARP cleavage by quercetin and trans-resveratrol in the presence of caspase inhibitor [3] | apoptosis (DNA fragmentation) caused by combinations of ROS inhibitor and polyphenolic compound, effect of Z-VAD ([4]; Z-VAD 100 μM) | release of cytochrome c into the cytoplasm in control (untreated) cells ([5]; no serum) | cytosolic cytochrome c release caused by quercetin or trans-resveratrol ([5]; polyphenol 100 μM) | PARP cleavage by quercetin and trans-resveratrol in the presence of caspase inhibitor [6] | oligonucleosomal DNA fragmentation (apoptosis) ([4]; DPI 15 μM, Tiron 10 mM, genistein 100 μM, trans-resveratrol 100 or 50 μM) | increase in ROS production caused by trans-resveratrol and genistein, effect of DPI [7] | NF-κB activation caused by serum [8]
O=S(=O)(O)c1cc(O)c(O)c(S(=O)(=O)O)c1 [Tiron, reference compound] | markedly depolarized the mitochondrial membrane | – | – | – | – | – | – | – | – | –
COC(=O)C[C@H](NC(=O)[C@H](C)NC(=O)[C@@H](NC(=O)OCc1ccccc1)C(C)C)C(=O)CF [Z-VAD, reference compound] (Cbz-Val-Ala-Asp(OMe)-CH2F) | – | blocked caspase activity | cleavage did not occur | inhibits apoptosis caused by the combinations | inhibited the release of cytochrome c | had no effect | cleavage did not occur | – | – | –
c1ccc2c(c1)[I+]c1ccccc1-2 [DPI, diphenylene iodonium, reference compound] | markedly depolarized the mitochondrial membrane | – | – | – | – | – | – | either no or small effects | prevented | not inhibited
